Experimental findings from patent US20060241067A1, “Methods For inhibiting angiogenesis, cell migration, cell adhesion, and cell survival” (priority 2002, published 2006) are described below.

Where two headings read alike, the source gives them in different places. Where a SMILES comes first, the peptide text is derived from it. Where no end group is shown, it is not given here. The star is where a group is joined. Cbz = O=C(OCc1ccccc1)*; CH2F = FC*

Experiment [1] has as its system Human umbilical vein endothelial cells (HUVEC). As to the kind of experiment: Endothelial cell migration assay (transwell) on ECM substrates. The following applies: for endothelial cell migration on vitronectin: 1 μM peptide. It counts as cell-based. The procedure: Human umbilical vein endothelial cells (HUVEC) were grown in Endothelial Growth Medium (containing 2% fetal bovine serum, bFGF and VEGF) (Clonetics, San Diego, Calif.). To render HUVECs quiescent for Rac and/or Rho assays, monolayers of endothelial cells were incubated for 18 hrs in Endothelial Basal Medium supplemented with 0.1% serum (Clonetics). Cell migration and adhesion assays on ECM substrates were performed as previously described in Kim et al. (S. Kim et al., Amer. J. Biol. Chem., 275:33920-33928 (2000); and S. Kim et al., Amer. J. Path., 156:1345-1362 (2000)).
Migration assays were performed essentially as described (Kim, et. al., 2000). […] HUVECS (25,000) were added to the upper chamber of inserts in migration buffer (Hepes buffered M199 medium containing 1% BSA, 2 mM MgCl2, 2 mM CaCl2 and 0.2 mM MnCl2) containing 25 μg/ml of various antibodies. In some experiments, 250 μM dibutyryl cAMP was placed in the upper and lower chambers of the transwell. Cells were allowed to migrate from the upper to the lower chamber for four hours at 37° C. The number of cells which had migrated were counted in three representative high power (200×) fields per insert. The data are presented as number of cells migrating+/−standard error of the mean. Migration assays were similarly performed on transfected cells. In this case, migrated transfected cells were identified by fluorescent microscopy and counted.

The subject of experiment [2] is chick chorioallantoic membrane (CAM). Put plainly: Chick chorioallantoic membrane (CAM) angiogenesis assay. Format: in vivo, chicken. Particulars: for angiogenesis (blood vessel branch points, vessel density): 1 μM peptide.
For experiment [3] the test system is unchanged. Put plainly: Apoptosis markers in CAM blood vessels in vivo (Annexin V, cleaved caspases, TUNEL, DNA gels). More on the design: species or system chicken. The procedure: CAM assays were performed as described (Kim et al. (2000) Am. J. Path. 156:1345-1362). Saline or bFGF stimulated CAMs were treated for 24 h with 20 μg anti-α5β1, anti-αvβ3 or control antibodies and then injected intravenously with 50 μl Annexin V-FITC. CAMs were harvested after 2 h, then analyzed by confocal microscopy. Alternatively, CAMs treated as above were excised, minced on ice, and treated with 0.1% dispase/0.1% collagenase for 1 h at 37° C. Single cell suspensions were incubated with FITC-Annexin V and analyzed as described above. bFGF stimulated CAMs were also treated with anti-α5β1 or anti-αvβ3 in the presence or absence of 500 μM caspase-3, -8 or -9 inhibitors. bFGF stimulated CAMs were also transfected with 4 μg N1-GFP, dnPKA or PKAcat expression plasmids. Freshly excised CAMs were homogenized in ice cold RIPA buffer containing protease inhibitors and immunoblotted to detect intact and cleaved caspase 3 or 8. For all treatment groups, n=10. CAMs were fixed with 3.7% paraformaldehyde prior to excision. The average number of blood vessel branch points per treatment group+/−SEM is presented. Some excised CAMs were cryopreserved, cut into 5 μm sections, immunostained with anti-cleaved caspase 3, anti-cleaved caspase 8 and anti-VFW antibodies (to detect blood vessels). CAMs were also stained by the TUNEL method to detect fragmented DNA.

Experiment [4] has as its system protein kinase A. Put plainly: PKA activity assay in HUVECs. Format: cell-based, human. The procedure:
PKA activity was measured in HUVECs essentially as previously described in Kim et al (S. Kim et al., Amer. J. Biol. Chem., 275:33920-33928 (02000)). HUVECs were placed in suspension, allowed to attach to ECM protein coated plates in the absence or presence of anti-integrin antibodies or were treated with 10 μM PTHrP and/or 250 μM cAMP. PKA activity was measured at various times from 0-4 hrs (e.g., 2-30 min).
Plates were washed and blocked in 3% bovine serum albumin for 1 hour at 37° C. HUVECS were trypsinized and resuspended in adhesion buffer (Hanks balanced salt solution supplemented with 10 mM HEPES, pH 7.4, 2 mM MgCl2, 2 mM CaCl2, 0.2 mM MnCl2, 1% BSA. Cells were plated on matrix protein coated plates in culture medium or in the presence of 25 μg/ml anti-α5β1, anti-αvβ3 or anti-α2β1 antibodies for various times from 0 minutes to 4 hours. Plates were washed with phosphate buffered saline and cells were extracted with cold extraction buffer (50 mM Tris, pH 7.5, 5 mM EDTA, 25 μg/ml aprotinin and 25 μg/ml leupeptin). Protein Kinase A activity was assessed using a kit from Gibco BRL. Briefly, equal volumes of lysate and reaction mixture containing final concentrations of 50 mM Tris, pH 7.5, 10 mM MgCl2, 0.25 mg/ml BSA, 50 μM Kemptide (a protein kinase A substrate), 3000 Ci/mmol (γ^32 P) ATP and 100 μM ATP were combined for 5 minutes at 30° C. Total PKA in each sample was measured by performing the assay in the presence of 10 μM cAMP. Background PKA activity in test and total PKA samples were determined by performing the assay in the presence of a PKA inhibitor peptide, PKI (6-22) amide. Twenty μl samples of reaction mixtures were spotted onto phosphocellulose discs and washed repeatedly with 1% (v/v) phosphoric acid in water. Incorporated radioactivity was determined by scintillation counting. Activated PKA was calculated from the ratio of pmol/min test sample PKA to pmol/min total PKA. PKA activity in triplicate samples was measured and experiments were repeated at least three times.
In another embodiment, PKA assays were performed with a kit from Calbiochem (San Diego, Calif.). Cell lysates were incubated in ELISA plates coated with a PKA peptide substrate, then incubated with anti-phosphoserine antibodies. Bound antibody was detected after incubation with anti-rabbit IgG-horse radish peroxidase. Statistical analyses were performed using Student's t-test.

`O=S(=O)(NCCNCC=Cc1ccc(Br)cc1)c1cccc2cnccc12` [H89, N-(2-(p-bromocinnamylamino)ethyl)-5-isoquinoline sulfonamide]: in experiment [1] (HUVEC on vitronectin), the “effect on cAMP-, PKA catalytic subunit- or PTHrP-mediated inhibition of cell migration” value was “blocked the anti-migratory properties of PTHrP”. In addition, the “effect on inhibition of angiogenesis by PTHrP” value in experiment [2] (bFGF stimulated CAMs, 8B12, 480 nM H89 or dnPKA plasmid) is given as “blocks the suppression of angiogenesis induced by PTHrP 1-34”. In the case of `CC[C@H](C)[C@H](NC(=O)OCc1ccccc1)C(=O)N[C@@H](CCC(=O)OC)C(=O)N[C@H](C(=O)N[C@@H](CC(=O)OC)C(=O)CF)[C@@H](C)O` [caspase 8 inhibitors, z-IETD-fmk] (Cbz-IE(OMe)TD(OMe)-CH2F), the “caspase activity in vivo (cleaved caspase immunoblot)” value in experiment [3] (CAMs treated with anti-α5β1 and caspase inhibitor) is “completely blocked its activity in vivo”. In addition, the “effect on endothelial cell DNA fragmentation induced by α5β1 inhibition in vivo” value in experiment [3] (TUNEL staining of CAM cryosections) is “prevented in vivo endothelial cell DNA fragmentation”. The “effect on inhibition of angiogenesis by anti-αvβ3” value in experiment [2] (bFGF stimulated CAMs, 500 μM caspase inhibitors) was “partially reversed”. Also, the “effect on inhibition of angiogenesis by anti-α5β1” value in experiment [2] (bFGF stimulated CAMs, 500 μM caspase inhibitors or 4 μg plasmid) was “fully reversed”.

In the case of “PTHrP 1-86: PTHrP fragment containing the N-terminus, amino acids 1-86”, the “endothelial cell migration on vitronectin” value (shortened to “endothelial cell migration”) in experiment [1] is recorded as “inhibited migration”. Also, in experiment [2] (bFGF stimulated CAMs), the “angiogenesis (blood vessel branch points, vessel density)” value is on record as “potently inhibited angiogenesis”.

For “PTHrP 15-34: PTHrP fragment, amino acids 15-34 (IQDLRRRFFLHHLIAEIHTA)”, the “endothelial cell migration” value in experiment [1] is recorded as “unable to inhibit cell migration”. Consider “PTHrP 107-138: PTHrP fragment lacking the N-terminus (TRSAWLDSGVTGSGLEGDHLSDTSTTSLELDS; UniProt P12272 143-174, looked up, fragment)”, for which, in experiment [1], the “endothelial cell migration” value is “not able to inhibit cell migration”. “calcitonin: a calcium regulating peptide hormone (CGNLSTCMLGTYTQDFNKFHTFPQTAIGVGAP; ends and bridges not checked; cysteine pairing not given here; UniProt P01258 85-116, looked up)”: the “angiogenesis (blood vessel branch points, vessel density)” value in experiment [2] (bFGF stimulated CAMs) is “Only PTHrP inhibited angiogenesis”. Moreover, the “pre-existing vessels (number, size, composition)” value in experiment [2] (saline-stimulated CAMs) is on record as “no effect on the number, size or composition of pre-existing vessels”. With cholera toxin, in experiment [4], the PKA activation entry is given as “activates PKA”.

pertussis toxin: the PKA activation result in experiment [4] (inventors' data, no details given) is “inhibits PKA activation”.
